Reference: patent publication US20150133411A1, “COMPOUNDS WITH TRPV4 ACTIVITY, COMPOSITIONS AND ASSOCIATED METHODS THEREOF” (The University of Utah Research Foundation, priority 2012, published 2015)

Legend:
Müller cells = experiment: Arachidonic acid-induced [Ca2+]i in Müller cells; type: cell-based; conditions: 1 μM, 10 μM arachidonic acid
Description: This response is blocked by Compound 1 (1 μM).

retinal ganglion cells [1] = experiment: Hypotonic swelling-induced calcium influx into retinal ganglion cells (Fura-2); type: cell-based; conditions: FIG. 17C
From the text: Cells were labeled with fluorescent calcium indicator dye Fura-2 and exposed to hypotonic solutions in which extracellular sodium was replaced by the osmotically inert substance mannitol, as described in […] et al. (J Neurosci. 2011 May 11; 31(19):7089-101; PMID 21562271).

retinal ganglion cell = experiment: High-Speed Pressure Clamp, pressure-induced inward currents; type: cell-based; conditions: voltage-clamped retinal ganglion cell, pressure steps 10 to 50 mm Hg
Description: The cell was voltage clamped and stimulated with the High-Speed Pressure Clamp method, as detailed by Besch et al (Pflugers Arch. 2002 October; 445(1):161-6). This method consists of a specialized headstage coupled to a piezo element in the pressure/vacuum control valve. By balancing the access of pressure to the patch pipette, the device generates rapid and reproducible pressure steps of >±200 mm Hg. Channel activity is recorded in the cell-attached mode or the membrane is “zapped” into the outside-out configuration.

retinal ganglion cells [2] = experiment: TUNEL assay of apoptotic cell death in retinas; type: cell-based; conditions: Compound 1 1 uM, RuR 10 μM
Description: Terminal deoxynucleotidyl transferase-mediated dUTP-biotin nick end labeling (TUNEL) is a common method for detecting fragmentation that results from apoptotic signaling cascades. Retinas were embedded, cryosectioned, and processed for the TUNEL assay following the protocol by Gavrieli et al. (1992). After 30 min. rehydration in 70% ethanol, 2×5 min. rinses in PBS and 1% Triton-X in 1% citrate buffer (pH 7.3), the slides were subjected to a final rinse in PBS. Slides were then incubated for 30 min. in the reaction buffer (30 mM Trizma-HCl, 140 mM cacodylate, 1.0 mM CaCl2, 0.2% Triton X-100, pH 7.2). Positive controls were treated with DNAse I (Roche Diagnostics; Branford, Conn.; 10 U/ml) in the reaction buffer. Next, slides were treated for 1 hour with 0.03 units/μl terminal transferase and 4 μM biotin-16-dUTP (Roche Diagnostics). The reaction was terminated in 30 mM Na+ citrate, 300 mM NaCl and 0.2% Triton X-100 in PBS (5 min.) and rinsed in PBS (2×5 min), exposed to 1% bovine serum albumin in PBS for 20 min and rinsed. Apoptotic cells were visualized with a confocal microscope (Zeiss LSM510) and categorized by size. […] This was blocked by RuR and by the TRPV4 antagonist Compound 1.

TRPV4 [3] = target: T1, TRPV4 (Mus musculus, UniProt Q9EPK8); experiment: GSK-evoked [Ca++]i in retinal Müller glial cells; type: cell-based; parameters: endogenous in cells; host or cells: retinal Müller glial cells
TRPV4 [4] = target: T1, TRPV4; experiment: AGB cation influx into retinal cells (anti-AGB antibody); type: cell-based; parameters: these two cell types express TRPV4 channels in the mouse retina; from tissue; host or cells: mouse retina (retinal ganglion cells and Müller glial cells); conditions: mouse retina
Description: FIG. 16 illustrates the effect of the TRPV4 agonist GSK on cation influx into mouse retinal cells of the mouse retina. The influx was determined using the anti-AGB antibody, as described by Marc R E (J Comp Neurol 407(1): 47-64, 1999). AGB is a membrane permeant cation that can flow through most known cation channels. Using an anti-AGB antibody, it can be determined where the cation flux occurs and, therefore, which cells are activated.

[5] = test system: retinal neurons (RGCs) and glia (Müller cells); experiment: Hypotonic stimuli: cell swelling (change in cell area) and [Ca++]i; type: cell-based
From the text: FIG. 18A illustrates the effect of hypotonic stimuli on cell swelling as measured by change in cell area. Hypotonic stimuli were generated by replacing extracellular sodium levels to lower osmolarity from 300 mOsm to 190 mOsm.

retinal ganglion cells [6] = experiment: In vivo intraocular injection of GSK, NeuN+ RGC count; conditions: intraocular GSK, 48 hours
Description: In this experiment, GSK (100-300 nM) was injected intraocularly with a Hamilton syringe. Retinas were isolated after 48 hours, fixed and labeled with the RGC marker antibody NeuN. NeuN-immunopositive somata in the ganglion cell layer, shown in the panel on the right, were counted. The bar graph represents quantification of NeuN^+ cells in the indicated experimental groups.

T1 sequence (Q9EPK8 whole entry): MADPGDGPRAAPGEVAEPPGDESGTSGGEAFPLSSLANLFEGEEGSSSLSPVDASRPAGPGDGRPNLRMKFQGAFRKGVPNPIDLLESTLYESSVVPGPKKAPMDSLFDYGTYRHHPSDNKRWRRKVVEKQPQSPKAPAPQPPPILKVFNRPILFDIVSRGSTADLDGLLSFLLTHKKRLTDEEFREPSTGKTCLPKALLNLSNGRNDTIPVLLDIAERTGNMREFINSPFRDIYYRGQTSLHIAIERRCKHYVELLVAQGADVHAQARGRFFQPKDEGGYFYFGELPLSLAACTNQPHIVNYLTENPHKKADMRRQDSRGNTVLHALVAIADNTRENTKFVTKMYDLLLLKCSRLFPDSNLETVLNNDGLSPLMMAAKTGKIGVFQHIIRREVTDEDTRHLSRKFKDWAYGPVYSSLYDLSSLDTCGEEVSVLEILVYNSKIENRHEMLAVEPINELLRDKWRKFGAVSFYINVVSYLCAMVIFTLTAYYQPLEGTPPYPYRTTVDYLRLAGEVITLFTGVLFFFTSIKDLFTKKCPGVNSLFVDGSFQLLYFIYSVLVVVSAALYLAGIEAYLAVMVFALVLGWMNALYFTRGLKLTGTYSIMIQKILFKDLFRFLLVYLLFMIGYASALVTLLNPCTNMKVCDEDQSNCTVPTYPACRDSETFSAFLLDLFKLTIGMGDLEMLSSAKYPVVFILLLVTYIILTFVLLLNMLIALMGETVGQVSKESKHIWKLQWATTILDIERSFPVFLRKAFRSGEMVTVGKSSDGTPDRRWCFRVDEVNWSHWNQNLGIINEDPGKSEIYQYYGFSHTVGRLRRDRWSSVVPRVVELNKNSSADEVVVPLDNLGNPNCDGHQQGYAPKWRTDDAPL

## Cc1c(C(=O)Nc2cccc(C(F)(F)F)c2)cc(-c2ccccc2)n1CCCN1CCOCC1 [Compound 1, N-(3-(trifluoromethyl)phenyl)-2-methyl-1-(3-morpholinopropyl)-5-phenyl-1H-pyrrole-3-carboxamide]
Müller cells
  effect on arachidonic acid-induced [Ca2+]i increase: blocked
Retinal ganglion cells [1]
  pressure-dependent influx of calcium in RGCs: prevents
Retinal ganglion cell
  pressure-induced inward currents: reversibly antagonized
Retinal ganglion cells [2]; 190 mOsm saline
  apoptotic cell death induced by hypotonic swelling (TUNEL): block apoptotic cell death
Retinal ganglion cells [2]; GSK 100 nM
  apoptotic cell death induced by TRPV4 agonist GSK (TUNEL): block apoptotic cell death
TRPV4 [3]; retinal Müller glial cells
  effect on GSK-evoked increase in [Ca++]i: blocked
TRPV4 [3]; superfusion with control saline
  reversibility of effect on glial calcium levels: reversible, as it can be washed out by 10 minute superfusion with control saline
TRPV4 [4]
  effect on GSK-induced AGB cation influx: strongly antagonized
[5]; FIG. 18B
  hypotonic stimuli-induced increase in [Ca++]i: inhibited
[5]; hypotonic stimuli, 300 mOsm to 190 mOsm
  cell swelling (change in cell area): prevented hypotonic stimuli-mediated cell swelling to the same extent as BAPTA-AM
Retinal ganglion cells [6]
  effect on GSK-induced degeneration of RGC: blocked
